From paper PMC10034409 (Frontiers in Pharmacology, 2023)
“Also recorded” adds a separate entry of the source.

Legend:
AChE = molecular target: T1, AChE (Homo sapiens, UniProt P22303); assay: biochemical; type: biochemical; details: for IC50 / AChE IC50: mean ± SEM of 3 experiments; for Ki: mean ± SEM, mean of four values from Lineweaver-Burk plot, its secondary re-plots and Dixon plot
T1 construct: purchased Sigma Aldrich (Steinheim, Germany)
Experimental: (§1) The test compounds were prepared fresh immediately before each experiment. Test compounds were added to 150 µl […] phosphate buffer (pH 8.0), 200 µl methanol, and 20 µl of the test enzymes and were incubated at 25°C for 15 min. A sample with an equal amount of solvent (ethanol) in place of the test compounds served as a negative control. 10 μl of DTNB reagent was added to the samples, and the reaction was initiated by adding 10 μl acetylthiocholine (ATCh) or butyrylthiocholine (BTCh) for the estimation of AChE and BChE, respectively. All the experiments were conducted in triplicate. […] The rate of enzyme inhibition was calculated as the change in optical density per minute (OD/min).
(§2) The enzyme inhibition activities of serially diluted concentrations of test compounds were measured, and the IC50 values were calculated using EZ-Fit Enzyme Kinetics Program.
(§3) The dissociation constant (Ki) values, which signified the dissociation of the enzyme-inhibitor complex into free enzyme and inhibitor, were also determined. […] These velocities were obtained over a range of substrate concentrations between 0.1 and 0.4 mM for ATCh and 0.05 and 0.2 mM for BTCh. The assay conditions for measurement of the residual activities of all inhibitors were identical to the aforementioned spectrophotometric assay procedure, except that the fixed concentrations of inhibiting compounds were used in the assay medium. Assays were conducted in triplicate at each concentration of the inhibitor.
(§4) The inhibition patterns of tested coumarins were determined by the graphical views of Dixon plots, Lineweaver-Burk plots, and their secondary re-plots. […] The linear regression analysis values, correlation coefficient, slope, intercept, and standard errors were obtained using the same software. Two different methods were applied to monitor the effects of the test sample on both Michaelis constant (K m ) and maximum velocity (V max) values. […] The secondary re-plots of the Lineweaver-Burk were also constructed in two ways; firstly, the reciprocal of apparent V max (1/V maxapp ) values were determined at each intersection point for every inhibitor concentration line on the y-axis of the Lineweaver-Burk plot and then re-plotted against different concentrations of the respective inhibitor. […] The secondary re-plot of the Dixon plot was constructed as the slope of each line of substrate concentration in the original Dixon plot against the reciprocals of substrate concentrations.

BChE = molecular target: T2, BChE (Homo sapiens, UniProt P06276); assay: biochemical; type: biochemical; details: for Ki: mean ± SEM, mean of four values from Lineweaver-Burk plot, its secondary re-plots and Dixon plot
T2 construct: purchased Sigma Aldrich (Steinheim, Germany)
Experimental: as §1, §2, §3, §4

T2 sequence (P06276 29-602): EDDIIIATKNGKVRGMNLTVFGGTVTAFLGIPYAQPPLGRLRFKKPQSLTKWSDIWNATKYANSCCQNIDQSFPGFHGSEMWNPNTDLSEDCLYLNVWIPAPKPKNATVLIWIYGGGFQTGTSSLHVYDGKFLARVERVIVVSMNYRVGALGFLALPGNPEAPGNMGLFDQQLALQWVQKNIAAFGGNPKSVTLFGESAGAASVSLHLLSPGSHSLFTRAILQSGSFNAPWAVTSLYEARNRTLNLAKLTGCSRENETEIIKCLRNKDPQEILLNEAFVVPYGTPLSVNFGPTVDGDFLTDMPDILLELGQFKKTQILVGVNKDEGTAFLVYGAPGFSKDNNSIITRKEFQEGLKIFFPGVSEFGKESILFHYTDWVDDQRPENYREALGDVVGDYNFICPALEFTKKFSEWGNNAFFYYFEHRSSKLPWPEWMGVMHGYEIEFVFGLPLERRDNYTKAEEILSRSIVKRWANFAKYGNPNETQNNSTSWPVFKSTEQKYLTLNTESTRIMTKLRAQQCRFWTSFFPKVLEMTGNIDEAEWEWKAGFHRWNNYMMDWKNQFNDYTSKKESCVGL
T1 sequence (P22303 32-614): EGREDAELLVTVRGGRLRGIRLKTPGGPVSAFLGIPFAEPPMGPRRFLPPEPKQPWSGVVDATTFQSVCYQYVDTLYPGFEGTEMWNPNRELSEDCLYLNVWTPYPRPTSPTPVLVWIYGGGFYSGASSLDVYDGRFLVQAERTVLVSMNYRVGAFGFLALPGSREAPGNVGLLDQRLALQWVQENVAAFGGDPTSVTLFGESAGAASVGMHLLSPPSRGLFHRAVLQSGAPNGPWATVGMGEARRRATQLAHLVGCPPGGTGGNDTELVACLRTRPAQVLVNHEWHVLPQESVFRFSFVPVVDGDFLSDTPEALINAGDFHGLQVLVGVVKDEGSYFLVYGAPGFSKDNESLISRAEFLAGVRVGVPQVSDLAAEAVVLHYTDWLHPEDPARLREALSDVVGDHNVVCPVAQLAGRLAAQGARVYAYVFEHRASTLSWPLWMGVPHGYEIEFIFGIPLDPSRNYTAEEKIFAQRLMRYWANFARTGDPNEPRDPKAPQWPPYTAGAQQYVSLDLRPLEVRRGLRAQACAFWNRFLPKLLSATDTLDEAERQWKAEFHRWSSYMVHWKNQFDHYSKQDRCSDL

COc1ccc2ccc(=O)oc2c1C(O)C(=O)C(C)C (centres unmarked) [Murranganone (2), murranganone]
Type of inhibition of AChE (in words) (AChE): pure non-competitive inhibition | IC50 (AChE): 79.1 ± 2.02 µM | Ki (AChE): 50 ± 0.58 µM | AChE Type of inhibition (AChE; table abbreviations): NC ^d | Type of inhibition of BChE (in words) (BChE): mixed-type inhibition | IC50 (BChE; mean ± SEM of 3 experiments): 74.3 ± 0.75 µM | Ki (BChE): 22 ± 0.44 µM | BChE Type of inhibition (BChE; table abbreviations): LM ^e

C=C(C)[C@@H](OCC)[C@@H](O)c1c(OC)ccc2ccc(=O)oc12 [2′-O-Ethylmurrangatin (1), 2′-O-ethylmurrangatin]
AChE IC50 (AChE): No activity upto 1 mM | AChE IC50 (AChE; listed as 2′-O-ethylmurrangatin (1)): not active at 1 mM conc; also recorded: did not show any inhibition | BChE IC50 (BChE; mean ± SEM of 3 experiments): very weak activity | IC50 (BChE; mean ± SEM of 3 experiments): 843 ± 13 µM

COc1ccc2ccc(=O)oc2c1C(OC(=O)CC(C)C)C(=O)C(C)C (centres unmarked) [Paniculatin (3), paniculatin]
Type of inhibition of AChE (in words) (AChE): mixed-type inhibitor | IC50 (AChE): 31.6 ± 0.03 µM | Ki (AChE): 43 ± 0.65 µM | Type of inhibition of BChE (in words) (BChE): mixed-type inhibitor | Ki (BChE): 22 ± 0.6 µM
